Where two headings read alike, the source gives them in different places. Bridge positions count the residues as written; N and C are the ends. Square brackets hold non-standard residues; d marks the D form. Peptide text beside a SMILES is read from it. * marks the point of attachment. 2Nal = N[C@@H](Cc1ccc2ccccc2c1)C(=O)O; Lys(iPr) = CC(C)NCCCC[C@H](N)C(=O)O; hCys = N[C@@H](CCS)C(=O)O; Bz = O=C(c1ccccc1)*; Mpa = O=C(O)CCS
Target: T1, Human chemokine receptor CXCR4 (Homo sapiens, UniProt P61073)
T1 construct: expressed in transfected cells; host or cells: Chem-1 cells (membranes)
Experiment: Human CXCR4/125I-SDF-1α binding inhibition assay
Experimental: “Ki” values are calculated using IC50 values determined in the CXCR4/^125I-SDF-1α binding assay described below by employing equation 7.22 of Enzymes, A Practical Introduction to Structure, Mechanism, and Data Analysis, Robert A. Copeland, Wiley-VCH, New York, 1996, page 207.
Human CXCR4/^125I-SDF-1α Binding Inhibition Assay:
Human chemokine receptor CXCR4 expressed in Chem-1 cells were used in modified HEPES buffer pH 7.4. A […] (Membrane protein may change from lot to lot, the concentration used were adjusted as necessary), aliquot was incubated with 0.03 nM [^125I]SDF-1α for 90 minutes at 25° C. Non-specific binding was estimated in the presence of 30 nM SDF-la. Membranes were filtered and washed, filters were then counted to determine [^125I]SDF-1α specifically bound. Compounds were screened starting at 10 μM with 11-point dilutions (Valenzuela-Fernandez A, et al. J Biol Chem. 277(18):15677, 2002).

[1] = calculated from IC50 of the CXCR4/125I-SDF-1α binding assay, read-out: Binding Kb

T1 sequence (P61073 whole entry): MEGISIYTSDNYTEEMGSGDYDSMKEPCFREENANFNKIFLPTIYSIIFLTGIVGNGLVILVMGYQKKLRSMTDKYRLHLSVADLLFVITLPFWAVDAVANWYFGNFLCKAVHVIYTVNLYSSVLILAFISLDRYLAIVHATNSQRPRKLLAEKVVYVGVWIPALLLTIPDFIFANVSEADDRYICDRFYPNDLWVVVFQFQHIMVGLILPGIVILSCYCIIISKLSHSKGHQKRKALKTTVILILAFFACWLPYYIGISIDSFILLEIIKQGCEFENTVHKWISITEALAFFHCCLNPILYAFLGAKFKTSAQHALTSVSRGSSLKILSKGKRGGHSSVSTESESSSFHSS

## CC(C)NCCCC[C@@H]1NC(=O)[C@H](Cc2ccc(O)cc2)NC(=O)CCSSC[C@@H](C(=O)N[C@H](CCCNC(=N)N)C(=O)NCC(=O)N[C@H](Cc2ccccc2)C(=O)NCC(N)=O)NC(=O)CNC(=O)[C@H](Cc2ccc3ccccc3c2)NC(=O)[C@@H](CCCNC(=N)N)NC1=O [Example 4, Cyclo[Mpa-Tyr-Lys(iPr)-(D-Arg)-2Nal-Gly-Cys]-(D-Arg)-Gly-(D-Phe)-Gly-NH2] ([Mpa]Y[Lys(iPr)][dR][2Nal]GC[dR]G[dF]G-NH2; disulfide 1-7)
[1]
  Kb: 0.21 nM

## N=C(N)NCCC[C@@H]1NC(=O)CCSSC[C@@H](C(=O)N[C@@H](CCCNC(=N)N)C(=O)NCC(=O)N[C@H](Cc2ccccc2)C(=O)NCC(N)=O)NC(=O)CNC(=O)[C@H](Cc2ccc3ccccc3c2)NC(=O)[C@H](CCCNC(=N)N)NC(=O)[C@H](Cc2ccc(O)cc2)NC1=O [Example 5, Cyclo[Mpa-Arg-Tyr-Arg-2Nal-Gly-Cys]-Arg-Gly-(D-Phe)-Gly-NH2] ([Mpa]RYR[2Nal]GCRG[dF]G-NH2; disulfide 1-7)
CXCR4 expressed in Chem-1 cells, 0.03 nM [125I]SDF-1α, 90 minutes at 25° C., HEPES buffer pH 7.4, read-out: Binding IC50
  IC50: > 1000 nM
[1]
  Kb: > 1000 nM

## CC(C)NCCCC[C@H](NC(=O)[C@@H]1CCSSC[C@H](NC(=O)c2ccccc2)C(=O)N[C@@H](Cc2ccc(O)cc2)C(=O)N[C@@H](CCCCNC(C)C)C(=O)N[C@H](CCCNC(=N)N)C(=O)N[C@@H](Cc2ccc3ccccc3c2)C(=O)NCC(=O)N1)C(=O)NCC(N)=O [Example 12, Benzoyl-cyclo[Cys-Tyr-Lys(iPr)-(D-Arg)-2Nal-Gly-hCys]-Lys(iPr)-Gly-NH2] (Bz-CY[Lys(iPr)][dR][2Nal]G[hCys][Lys(iPr)]G-NH2; disulfide 1-7)
  Kb: 0.21 nM

## CCNC(=O)CNC(=O)[C@H](CCCCNC(C)C)NC(=O)[C@@H]1CSSCC[C@H](NC(=O)c2ccccc2)C(=O)N[C@@H](Cc2ccc(O)cc2)C(=O)N[C@@H](CCCCNC(C)C)C(=O)N[C@H](CCCNC(=N)N)C(=O)N[C@@H](Cc2ccc3ccccc3c2)C(=O)NCC(=O)N1 [Example 14, Benzoyl-cyclo[hCys-Tyr-Lys(iPr)-(D-Arg)-2Nal-Gly-Cys]-Lys(iPr)-Gly-NH(Et)] (Bz-[hCys]Y[Lys(iPr)][dR][2Nal]GC[Lys(iPr)]G-NHEt; disulfide 1-7)
  IC50: 1.3 nM
  Kb: 0.39 nM

Reference: US10351601B2, “CXCR4 antagonists and methods of use” (Mainline Biosciences, priority 2016, dated 2019)
